The values below are quoted from earlier work in US7700798B1, “Erogorgiaene congeners and methods and intermediates useful in the preparation of same” (The Research Foundation of State University of New York, priority 2005, dated 2010).

The conditions of this data set: literature statement, comparison with the commercially used natural products.

In the case of Elisabethadione, the “anti-inflammatory potency compared with the pseudopterosins” value was “more potent than the related and commercially used natural products, the pseudopterosins”.
